Earlier results as cited in patent US20250127746A1, “TOPICAL CONTACT SENSITIZERS TO TREAT CANCER” (Squarex Pharmaceutical Corporation, priority 2023, published 2025).
Entries after “also recorded” stand apart in the source; their conditions may differ.

Assays:
[1] = tested on: herpes labialis outbreaks
common warts = conditions: Candida injected, SADBE applied topically
[2] = tested on: PBMCs stimulated with HSV-1
[3] = prevention of cold sore episodes

CCCCOc1c(OCCCC)c(=O)c1=O [SADBE, 3,4-Dibutoxy-3-cyclobutene-1,2-dione]
time after which efficacy begins to wane [1, 3]: 3 to 4 months | time for a dose to take effect [1, 3]: 2 to 8 weeks | number of oral herpes (herpes labialis) outbreaks ([1]; topical application to the arm): effective in preventing (reducing the number of) herpes labialis episodes; also recorded: reduce frequency of herpes labialis outbreaks; also recorded: prevent and reduce the number of oral herpes outbreaks | efficacy to treat common warts (common warts): effective in treating warts; also recorded: effective to treat common warts | expression of interferon gamma (IFNG) by isolated PBMCs exposed to HSV ([2]; 8 weeks after a topical application to the arm): increased | PBMC proliferation and immune gene expression profile versus subjects with infrequent or zero outbreaks ([2]; 56 days after a single topical dose, versus day 1): more like those of the subjects with infrequent or zero outbreaks | change of immune response type ([2]; single dose, against both herpes simplex virus and Candida extract): from a type 2 immune response to a type 1 immune response
